Assay results reported in PubChem BioAssay (NCI).
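Step 1: Grow cells in 96-well plates. Step 2: Expose to compound for 48 hours at 5 concentrations. Step 3: Interpolate endpoints linearly; if unreached, use highest concentration. TGI is the concentration that stops growth completely.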

What was measured:
Assay in all cases: NCI-60 cell line screen, 48 h
786-0 renal = test system: 786-0 renal
A498 renal = test system: A498 renal
A549 NSCLC = test system: A549 NSCLC
ACHN renal = test system: ACHN renal
CAKI-1 renal = test system: CAKI-1 renal
CCRF-CEM leukemia = test system: CCRF-CEM leukemia
COLO 205 colon = test system: COLO 205 colon
DLD-1 colon = test system: DLD-1 colon
DMS 114 small cell lung = test system: DMS 114 small cell lung
DMS 273 small cell lung = test system: DMS 273 small cell lung
EKVX NSCLC = test system: EKVX NSCLC
HCC-2998 colon = test system: HCC-2998 colon
HCT-116 colon = test system: HCT-116 colon
HCT-15 colon = test system: HCT-15 colon
HL-60(TB) leukemia = test system: HL-60(TB) leukemia
HOP-18 NSCLC = test system: HOP-18 NSCLC
HOP-62 NSCLC = test system: HOP-62 NSCLC
HOP-92 NSCLC = test system: HOP-92 NSCLC
HT29 colon = test system: HT29 colon
IGROV1 ovarian = test system: IGROV1 ovarian
K-562 leukemia = test system: K-562 leukemia
KM12 colon = test system: KM12 colon
LOX IMVI melanoma = test system: LOX IMVI melanoma
LXFL 529 NSCLC = test system: LXFL 529 NSCLC
M14 melanoma = test system: M14 melanoma
M19-MEL melanoma = test system: M19-MEL melanoma
MALME-3M melanoma = test system: MALME-3M melanoma
MOLT-4 leukemia = test system: MOLT-4 leukemia
NCI-H226 lung = test system: NCI-H226 lung
NCI-H23 lung = test system: NCI-H23 lung
NCI-H460 lung = test system: NCI-H460 lung
NCI-H522 lung = test system: NCI-H522 lung
OVCAR-3 ovarian = test system: OVCAR-3 ovarian
OVCAR-4 ovarian = test system: OVCAR-4 ovarian
OVCAR-5 ovarian = test system: OVCAR-5 ovarian
OVCAR-8 ovarian = test system: OVCAR-8 ovarian
RPMI-8226 leukemia = test system: RPMI-8226 leukemia
RXF-631 renal = test system: RXF-631 renal
SF-268 CNS = test system: SF-268 CNS
SF-295 CNS = test system: SF-295 CNS
SF-539 CNS = test system: SF-539 CNS
SK-MEL-2 melanoma = test system: SK-MEL-2 melanoma
SK-MEL-28 melanoma = test system: SK-MEL-28 melanoma
SK-MEL-5 melanoma = test system: SK-MEL-5 melanoma
SK-OV-3 ovarian = test system: SK-OV-3 ovarian
SN12C renal = test system: SN12C renal
SNB-19 CNS = test system: SNB-19 CNS
SNB-75 CNS = test system: SNB-75 CNS
SNB-78 CNS = test system: SNB-78 CNS
SR leukemia = test system: SR leukemia
SW-620 colon = test system: SW-620 colon
TK-10 renal = test system: TK-10 renal
U251 CNS = test system: U251 CNS
UACC-257 melanoma = test system: UACC-257 melanoma
UACC-62 melanoma = test system: UACC-62 melanoma
UO-31 renal = test system: UO-31 renal
XF 498 CNS = test system: XF 498 CNS
KM20L2 colon = test system: KM20L2 colon
RXF 393 renal = test system: RXF 393 renal

Cn1ncc2c(Nc3ccc(Cl)cc3)c3ccccc3nc21
TGI (786-0 renal): 32.4 µM | TGI (A498 renal): 29.7 µM | TGI (A549 NSCLC): 43.2 µM | TGI (ACHN renal): 55.9 µM | TGI (CAKI-1 renal): 80.6 µM | TGI (CCRF-CEM leukemia): 56.7 µM | TGI (COLO 205 colon): 42.4 µM | TGI (DLD-1 colon): 30.3 µM | TGI (DMS 114 small cell lung): 34.5 µM | TGI (DMS 273 small cell lung): 35.5 µM | TGI (EKVX NSCLC): > 10 µM | TGI (HCC-2998 colon): 39.7 µM | TGI (HCT-116 colon): 26.4 µM | TGI (HCT-15 colon): 40 µM | TGI (HL-60(TB) leukemia): 73.6 µM | TGI (HOP-18 NSCLC): 69.5 µM | TGI (HOP-62 NSCLC): 31.9 µM | TGI (HOP-92 NSCLC): 39.1 µM | TGI (HT29 colon): 27.1 µM | TGI (IGROV1 ovarian): 54.7 µM | TGI (K-562 leukemia): 56.7 µM | TGI (KM12 colon): 40.9 µM | TGI (LOX IMVI melanoma): 32.7 µM | TGI (LXFL 529 NSCLC): 34.7 µM | TGI (M14 melanoma): 28.3 µM | TGI (M19-MEL melanoma): 37.2 µM | TGI (MALME-3M melanoma): 39.7 µM | TGI (MOLT-4 leukemia): 63.2 µM | TGI (NCI-H226 lung): 35.4 µM | TGI (NCI-H23 lung): > 10 µM | TGI (NCI-H460 lung): 52.7 µM | TGI (NCI-H522 lung): 37.2 µM | TGI (OVCAR-3 ovarian): 46.2 µM | TGI (OVCAR-4 ovarian): 29.2 µM | TGI (OVCAR-5 ovarian): 47.5 µM | TGI (OVCAR-8 ovarian): 30.3 µM | TGI (RPMI-8226 leukemia): 93.9 µM | TGI (RXF-631 renal): 33.5 µM | TGI (SF-268 CNS): 51.5 µM | TGI (SF-295 CNS): 36 µM | TGI (SF-539 CNS): 30.1 µM | TGI (SK-MEL-2 melanoma): 33.7 µM | TGI (SK-MEL-28 melanoma): 29.7 µM | TGI (SK-MEL-5 melanoma): 26.7 µM | TGI (SK-OV-3 ovarian): 54.9 µM | TGI (SN12C renal): 58.3 µM | TGI (SNB-19 CNS): 43.9 µM | TGI (SNB-75 CNS): 29.2 µM | TGI (SNB-78 CNS): 74.6 µM | TGI (SR leukemia): > 100 µM | TGI (SW-620 colon): 39.1 µM | TGI (TK-10 renal): 77.3 µM | TGI (U251 CNS): 29.3 µM | TGI (UACC-257 melanoma): 31.7 µM | TGI (UACC-62 melanoma): 31.6 µM | TGI (UO-31 renal): > 10 µM | TGI (XF 498 CNS): > 10 µM

CC(=O)OCC1(C)C(OC(C)=O)CCC2(C)C(CC(OC(C)=O)C3=CCOC3=O)C(O)(CO)CCC12 (stereo unspecified)
TGI (786-0 renal): > 100 µM | TGI (A498 renal): > 100 µM | TGI (A549 NSCLC): > 100 µM | TGI (ACHN renal): > 100 µM | TGI (CAKI-1 renal): > 100 µM | TGI (CCRF-CEM leukemia): > 100 µM | TGI (COLO 205 colon): > 100 µM | TGI (DLD-1 colon): > 100 µM | TGI (DMS 273 small cell lung): > 100 µM | TGI (EKVX NSCLC): > 100 µM | TGI (HCC-2998 colon): > 100 µM | TGI (HCT-116 colon): > 100 µM | TGI (HL-60(TB) leukemia): > 100 µM | TGI (HOP-18 NSCLC): > 100 µM | TGI (HOP-62 NSCLC): > 100 µM | TGI (HOP-92 NSCLC): > 100 µM | TGI (HT29 colon): > 100 µM | TGI (IGROV1 ovarian): > 100 µM | TGI (K-562 leukemia): > 100 µM | TGI (KM12 colon): > 100 µM | TGI (KM20L2 colon): > 100 µM | TGI (LOX IMVI melanoma): > 100 µM | TGI (LXFL 529 NSCLC): > 100 µM | TGI (M14 melanoma): > 100 µM | TGI (M19-MEL melanoma): > 100 µM | TGI (MALME-3M melanoma): > 100 µM | TGI (NCI-H226 lung): > 100 µM | TGI (NCI-H23 lung): > 100 µM | TGI (NCI-H460 lung): > 100 µM | TGI (NCI-H522 lung): > 100 µM | TGI (OVCAR-3 ovarian): > 100 µM | TGI (OVCAR-4 ovarian): > 100 µM | TGI (OVCAR-5 ovarian): > 100 µM | TGI (OVCAR-8 ovarian): > 100 µM | TGI (RPMI-8226 leukemia): > 100 µM | TGI (RXF 393 renal): > 100 µM | TGI (RXF-631 renal): > 100 µM | TGI (SF-268 CNS): > 100 µM | TGI (SF-295 CNS): > 100 µM | TGI (SF-539 CNS): > 100 µM | TGI (SK-MEL-28 melanoma): > 100 µM | TGI (SK-MEL-5 melanoma): > 100 µM | TGI (SK-OV-3 ovarian): > 100 µM | TGI (SN12C renal): > 100 µM | TGI (SNB-19 CNS): > 100 µM | TGI (SNB-75 CNS): > 100 µM | TGI (SNB-78 CNS): > 100 µM | TGI (SW-620 colon): > 100 µM | TGI (TK-10 renal): > 100 µM | TGI (U251 CNS): > 100 µM | TGI (UACC-257 melanoma): > 100 µM | TGI (UACC-62 melanoma): > 100 µM | TGI (UO-31 renal): > 100 µM | TGI (XF 498 CNS): > 100 µM
